“Also recorded” adds a separate entry of the source. Where two headings read alike, the source gives them in different places.
Experiments:
CYP 2D6 = CYP 2D6 (Homo sapiens, UniProt P10635); assay: CYP inhibition, 2D6
MEK7 = biological target: T1, MEK7 (Homo sapiens, UniProt O14733); assay: ADP-Glo kinase activity assay, MEK7; type: biochemical
T1 construct: purchased Carna Biosciences
T1 sequence (O14733 1-419): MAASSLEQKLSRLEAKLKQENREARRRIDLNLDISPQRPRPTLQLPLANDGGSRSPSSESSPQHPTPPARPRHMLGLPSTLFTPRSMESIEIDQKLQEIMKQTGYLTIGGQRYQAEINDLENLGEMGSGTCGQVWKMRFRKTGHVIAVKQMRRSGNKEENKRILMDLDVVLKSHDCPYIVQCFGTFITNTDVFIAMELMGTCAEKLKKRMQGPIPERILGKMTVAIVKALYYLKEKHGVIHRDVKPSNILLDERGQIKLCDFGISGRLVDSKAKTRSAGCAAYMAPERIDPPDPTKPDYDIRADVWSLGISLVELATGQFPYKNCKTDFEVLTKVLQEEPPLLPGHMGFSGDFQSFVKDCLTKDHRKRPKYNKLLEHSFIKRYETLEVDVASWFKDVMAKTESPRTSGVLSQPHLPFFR
Experimental: The compounds were then evaluated both in vitro and in a cellular system. When studying kinase inhibitors, there are a multitude of ways to evaluate selectivity across kinases.
Procedure for a 5 μL Kinase reaction using the ADP-Glo Kinase Assay Kit from Promega. Staurosporine was used as the positive control, and DMSO as the negative control. Activity of recombinant active full-length human MEK4 (Carna Biosciences) was measured using the ADP-Glo assay with recombinant full-length human p38α (MAPK14). Kinase reactions with MEK7 (Carna Biosciences) were done at the same concentration and amounts with recombinant full-length human p38α (MAPK14).
For each well, 4 ng of MEK4 and 600 ng of p38α in Kinase buffer (CST) were used, and 1 μL of this mixture was dispensed per well.
Inhibitor was prepared in a DMSO solution. A dose response dilution was done in a 384-well Echo transfer plate. […] This mixture was allowed to incubate for 30 minutes at room temperature.
Using a Mantis, 1 μL, of an 8 μM ATP solution was added to each well, and the plate was allowed to incubate for another 1 hour at room temperature. […] All experiments were done in triplicate on the plate, and at least in one separate technical duplicate.

[1] = tested on: phospho-p42/44 MAPK in MiaPaCa2 cells; assay: p42/44 MAPK phosphorylation, western blotting, MiaPaCa2; type: cell-based, human; conditions: MiaPaCa2, MEK4 inhibitor 10 μM, 5 hours
Experimental: (§1) The effects of different treatments on phospho-p42/44 MAPK and total p42/44 MAPK expression levels were determined by western blotting. HSP90 was used as loading control. The blots are representative of at least three biological replicates.
(§2) Whole cell extracts of cultured cells were prepared in radioimmunoprecipitation (RIPA) lysis buffer supplemented with phosphatase and protease inhibitors (Calbiochem). Protein concentration was determined by the bicinchoninic acid assay (BCA) (ThermoFisher) and separated by the SDS-PAGE technique. […] Secondary anti-mouse IgG (A4416) and anti-rabbit IgG (A6667) antibodies were purchased from Sigma-Aldrich and used a 1:4000 dilution. Images of blots were acquired on HyBlot ES Autoradiography Film (Thomas Scientific, Swedesboro, NJ, USA) following incubation with SuperSignal West Pico PLUS (ThermoFisher).

CYP 1A2 = CYP 1A2 (Homo sapiens, UniProt P05177)
[2] = tested on: JNK phosphorylation in CD18 cells; assay: anisomycin-induced JNK phosphorylation, western blotting, CD18; type: cell-based, human; conditions: CD18, anisomycin 45 minutes then compound 5 hours
Experimental: (§3) HSP90 was used as loading control. The blots are representative of at least three biological replicates.
(§4) We also examined the effects of these inhibitors on JNK phosphorylation and proliferation of two pancreatic cancer cell lines (CD18 and MiaPaCa2).
(§5) Human pancreatic cancer cell lines (CD18/HPAF-II and MiaPaCa2) and HEK293T cells were obtained from American Type Culture Collection. All cell lines were cultured according to the manufacturer's protocol. All media contained 10% Fetal Bovine Serum (FBS) and antibiotics (100 U/mL Penicillin and 100 μg/mL Streptomycin).
as §2

[3] = tested on: phospho-p42/44 MAPK in HEK293T cells; assay: p42/44 MAPK (ERK1/2) phosphorylation, western blotting, HEK293T; type: cell-based, human; conditions: anisomycin pretreatment, compound 100 μM, 5 hours
Experimental: as §3
(§6) We next evaluated the effects of our inhibitors on the phosphorylation activity and expression of MEK1/2, MEK3/6, and MEK7. […] We also evaluated the effects on p42/44 MAPK (ERK1/2), which functions downstream of MEK1/2.
as §2

[4] = tested on: phospho-p42/44 MAPK in CD18 cells; assay: p42/44 MAPK phosphorylation, western blotting, CD18; type: cell-based, human; conditions: CD18, MEK4 inhibitor 10 μM, 5 hours
Experimental: as §1, §2

CYP 2C9 = CYP 2C9 (Homo sapiens, UniProt P11712); assay: CYP inhibition, 2C9
[5] = Log D study (BioDuro-Sundia); conditions: pH of 7.4
Caco-2 = Caco-2 permeability assay; type: in vitro ADME
[6] = liver microsome stability study (BioDuro-Sundia)
[7] = tested on: JNK phosphorylation in MiaPaCa2 cells; assay: anisomycin-induced JNK phosphorylation, western blotting, MiaPaCa2; type: cell-based, human; conditions: MiaPaCa2, anisomycin 45 minutes then compound 5 hours
Experimental: as §3, §4, §5, §2

[8] = PAMPA assay (BioDuro-Sundia); type: in vitro ADME
MiaPaCa2 cells = assay: cell proliferation (cell count after 72 hours), MiaPaCa2; type: cell-based, human; conditions: MiaPaCa2, 72 hours, varying doses, single agent
Experimental: (§7) After 72 hours, cells were trypsinized, counted, and the cell numbers were normalized against the DMSO treatment. Mean±SD. Graphs are representative of 3 biological replicates.
as §7
(§8) Cell numbers from different treatments were normalized against the DMSO treatment, and CDI is calculated as follows: CDI=AB/(A×B), with AB being the ratio of the combination groups to control group and A or B being the ratio of the single agent group to the DMSO group. Mean±SEM from 3 biological replicates.
as §4, §5

[9] = tested on: JNK phosphorylation in HEK293T cells; assay: anisomycin-induced JNK phosphorylation, western blotting, HEK293T; type: cell-based, human; conditions: anisomycin 45 minutes then compound 5 hours, increasing doses
Experimental: The blots are representative of at least three biological replicates.
as §4, §5, §2

CD18 cells = assay: cell proliferation (cell count after 72 hours), CD18; type: cell-based, human; conditions: CD18, 72 hours, varying doses, single agent
Experimental: as §7, §7, §8, §4, §5

CYP isoforms 3A4/5 = assay: CYP inhibition, 3A4/5
[10] = tested on: MEK7 expression in HEK293T cells; assay: MEK7 expression, western blotting, HEK293T; type: cell-based, human; conditions: anisomycin pretreatment, compound 100 μM, 5 hours
Experimental: as §3, §6, §2

[11] = tested on: phospho-p38 MAPK in HEK293T cells; assay: p38 MAPK phosphorylation, western blotting, HEK293T; type: cell-based, human; conditions: anisomycin pretreatment, compound 100 μM, 5 hours
Experimental: as §3, §6, §2

CYP 2C19 = CYP 2C19 (Homo sapiens, UniProt P33261); assay: CYP inhibition, 2C19
HEK293T cells = assay: cell proliferation (cell count after 72 hours), HEK293T; type: cell-based, human; conditions: varying doses
Experimental: After 72 hours, cells were trypsinized, counted, and the cell numbers were normalized against the DMSO treatment. Mean±SD. Graphs are representative of 3 biological replicates. One-way ANOVA; ns, non-significant **, p<0.01 ***, p<0.001.
as §4, §5

Cot = Cot (Homo sapiens, UniProt P41279); conditions: cited from earlier work
Cot, sequence (P41279 whole entry): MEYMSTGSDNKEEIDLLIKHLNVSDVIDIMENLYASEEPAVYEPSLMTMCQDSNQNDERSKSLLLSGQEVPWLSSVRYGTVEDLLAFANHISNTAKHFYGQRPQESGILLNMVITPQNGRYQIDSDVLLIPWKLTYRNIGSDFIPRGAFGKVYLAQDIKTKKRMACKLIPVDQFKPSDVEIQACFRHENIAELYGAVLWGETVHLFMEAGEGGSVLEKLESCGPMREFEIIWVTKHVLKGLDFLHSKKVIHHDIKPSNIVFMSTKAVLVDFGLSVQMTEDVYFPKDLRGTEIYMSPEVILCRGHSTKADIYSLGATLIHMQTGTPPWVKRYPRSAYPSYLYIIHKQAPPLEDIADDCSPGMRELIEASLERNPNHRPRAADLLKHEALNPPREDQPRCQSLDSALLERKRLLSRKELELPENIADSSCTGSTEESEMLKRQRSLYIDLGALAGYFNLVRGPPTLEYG

CYP 1A2, sequence (P05177 whole entry): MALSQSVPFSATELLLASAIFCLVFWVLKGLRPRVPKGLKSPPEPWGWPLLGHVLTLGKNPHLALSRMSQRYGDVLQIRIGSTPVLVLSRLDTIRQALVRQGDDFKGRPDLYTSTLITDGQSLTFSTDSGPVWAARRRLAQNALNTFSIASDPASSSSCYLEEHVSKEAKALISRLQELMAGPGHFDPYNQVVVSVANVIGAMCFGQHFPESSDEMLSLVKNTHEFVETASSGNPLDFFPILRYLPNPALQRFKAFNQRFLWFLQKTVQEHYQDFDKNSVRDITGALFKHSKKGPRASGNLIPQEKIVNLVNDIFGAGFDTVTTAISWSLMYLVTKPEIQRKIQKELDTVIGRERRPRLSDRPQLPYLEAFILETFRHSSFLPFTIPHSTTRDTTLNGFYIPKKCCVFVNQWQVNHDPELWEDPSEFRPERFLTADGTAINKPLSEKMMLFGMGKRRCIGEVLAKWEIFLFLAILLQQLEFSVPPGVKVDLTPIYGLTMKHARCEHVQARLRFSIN
CYP 2D6, sequence (P10635 whole entry): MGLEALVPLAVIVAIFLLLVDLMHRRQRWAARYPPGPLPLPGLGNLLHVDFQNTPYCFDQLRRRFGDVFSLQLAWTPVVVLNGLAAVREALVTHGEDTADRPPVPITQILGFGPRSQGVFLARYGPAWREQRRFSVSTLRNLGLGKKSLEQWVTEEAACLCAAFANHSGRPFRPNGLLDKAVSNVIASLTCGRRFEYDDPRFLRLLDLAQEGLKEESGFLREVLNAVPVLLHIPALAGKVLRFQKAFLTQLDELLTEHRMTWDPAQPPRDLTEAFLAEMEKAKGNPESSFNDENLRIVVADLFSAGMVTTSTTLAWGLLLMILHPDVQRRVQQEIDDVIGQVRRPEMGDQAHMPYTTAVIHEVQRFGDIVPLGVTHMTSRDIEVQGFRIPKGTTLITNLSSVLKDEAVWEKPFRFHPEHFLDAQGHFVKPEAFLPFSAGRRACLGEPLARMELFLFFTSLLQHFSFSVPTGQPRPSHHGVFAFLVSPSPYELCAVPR
CYP 2C19, sequence (P33261 whole entry): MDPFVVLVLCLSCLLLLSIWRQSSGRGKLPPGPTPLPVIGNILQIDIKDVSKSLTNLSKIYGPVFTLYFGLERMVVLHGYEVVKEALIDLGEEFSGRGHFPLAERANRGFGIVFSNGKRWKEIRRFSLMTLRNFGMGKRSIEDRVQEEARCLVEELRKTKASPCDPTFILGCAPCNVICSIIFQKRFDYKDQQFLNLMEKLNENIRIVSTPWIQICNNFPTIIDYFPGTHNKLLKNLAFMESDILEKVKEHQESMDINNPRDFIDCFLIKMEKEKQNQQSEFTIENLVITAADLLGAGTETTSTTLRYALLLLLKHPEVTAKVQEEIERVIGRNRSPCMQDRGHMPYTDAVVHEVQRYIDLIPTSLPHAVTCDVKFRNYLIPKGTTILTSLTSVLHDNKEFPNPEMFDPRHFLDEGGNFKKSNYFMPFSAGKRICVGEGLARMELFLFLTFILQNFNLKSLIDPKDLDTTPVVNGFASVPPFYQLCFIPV
CYP 2C9, sequence (P11712 whole entry): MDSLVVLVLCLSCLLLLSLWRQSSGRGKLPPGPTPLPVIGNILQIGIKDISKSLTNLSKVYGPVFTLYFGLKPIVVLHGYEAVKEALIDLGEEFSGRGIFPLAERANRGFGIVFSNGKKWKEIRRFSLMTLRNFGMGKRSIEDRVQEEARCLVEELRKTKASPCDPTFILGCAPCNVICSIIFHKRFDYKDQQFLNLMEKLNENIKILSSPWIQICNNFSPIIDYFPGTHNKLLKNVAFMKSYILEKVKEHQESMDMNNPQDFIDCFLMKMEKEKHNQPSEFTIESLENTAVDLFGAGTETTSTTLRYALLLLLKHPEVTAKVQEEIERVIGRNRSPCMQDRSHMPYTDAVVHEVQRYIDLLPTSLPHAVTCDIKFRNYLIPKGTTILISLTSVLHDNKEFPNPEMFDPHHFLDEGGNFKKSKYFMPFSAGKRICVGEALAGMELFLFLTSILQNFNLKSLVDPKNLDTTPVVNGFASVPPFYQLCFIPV

## NS(=O)(=O)c1ccc(-c2n[nH]c3cc(F)ccc23)cc1 [Compound 10e, 4-(6-fluoro-1H-indazol-3-yl)benzenesulfonamide]
CYP 2D6
  inhibition of CYP 2D6: avoided inhibiting
MEK7
  IC50: 0.52 ± 0.67 µM
MEK7; headline value per compound, read-out: MEK7 IC50
  IC50: 0.54 µM
MEK7; individual experiment, values in brackets, n=3, read-out: MEK7 IC50 of each experiment (IC50±SEM)
  IC50: 0.56 ± 0.22 µM
[1]
  effect on p42/44 MAPK phosphorylation: did not induce p42/44 MAPK phosphorylation
CYP 1A2
  inhibition of CYP 1A2: inhibited
[2]
  effect on anisomycin-induced JNK phosphorylation: attenuated anisomycin-induced JNK phosphorylation
[3]
  effect on p42/44 MAPK phosphorylation after anisomycin: reversed the effects of anisomycin
[4]
  effect on p42/44 MAPK phosphorylation: increased p42/44 MAPK phosphorylation
CYP 2C9
  inhibition of CYP 2C9: avoided inhibiting
[5]
  log D: 2.80
Caco-2
  Caco-2 permeability: medium to high permeability
[6]; liver microsome
  half-life in the microsome assay: 1.9 h
[6]; microsomes
  stability in the microsome assay: good stability
[7]
  effect on anisomycin-induced JNK phosphorylation: attenuated anisomycin-induced JNK phosphorylation
[8]
  permeability in the PAMPA assay: performed slightly better
MiaPaCa2 cells
  cell proliferation: decreased proliferation; also recorded: antiproliferative properties
[9]
  effect on anisomycin-induced JNK phosphorylation: attenuated anisomycin-induced INK phosphorylation in a dose-dependent manner
CD18 cells
  cell proliferation: decreased proliferation; also recorded: antiproliferative properties
CYP isoforms 3A4/5
  inhibition of CYP isoforms 3A4/5: did not inhibit
[10]
  effect on the expression of MEK7: no effect
[11]
  effect on anisomycin-induced p38 MAPK phosphorylation: not affected
CYP 2C19
  inhibition of CYP 2C19: inhibited
HEK293T cells
  cell proliferation: decreased. HEK293T cell proliferation in a dose-dependent manner

## O=c1c(-c2ccc(O)c(O)c2)coc2cc(O)ccc12 [THIF, 7,3′,4′-trihydroxyisoflavone]
Cot
  Cot activity (literature): inhibits
